From patent US10399933B2, “Inhibitors of indoleamine-2,3-dioxygenase for the treatment of cancer” (BRISTOL-MYERS SQUIBB COMPANY, priority 2015, dated 2019)

target: human IDO1 (Homo sapiens, UniProt P14902); assay: Human IDO-1 inhibitory activity in HEK cells (human IDO1/HEK293 cellular assay); type: cell-based; parameters: expressed in transfected cells; details: HEK human IDO-1 cellular assay; 500 nM reference standard = 100% inhibition, DMSO = 0%
Experimental: They were cultured in medium (DMEM with 10% FBS) containing 1 mg/ml G418 for two weeks.
The human IDO1/HEK293 cells were seeded at 10,000 cells per 50 μL per well with RPMI/phenol red free media contains 10% FBS in a 384-well black wall clear bottom tissue culture plate (Matrix Technologies LLC) 100 nL of certain concentration of compound was then added to each well using ECHO liquid handling systems. The cells were incubated for 20 hours in 37° C. incubator with 5% CO2.
The compound treatments were stopped by adding trichloroacetic acid (Sigma-Aldrich) to a final concentration at 0.2%. The cell plate was further incubated at 50° C. for 30 minute. The equal volume supernatant (20 μL) and 0.2% (w/v) Ehrlich reagent (4-dimethylaminobenzaldehyde, Sigma-Aldrich) in glacial acetic acid were mixed in a new clear bottom 384-well plate. This plate was then incubated at room temperature for 30 minute. The absorbance at 490 nm was measured on Envision plate reader.

Sequence of human IDO1 (P14902 whole entry): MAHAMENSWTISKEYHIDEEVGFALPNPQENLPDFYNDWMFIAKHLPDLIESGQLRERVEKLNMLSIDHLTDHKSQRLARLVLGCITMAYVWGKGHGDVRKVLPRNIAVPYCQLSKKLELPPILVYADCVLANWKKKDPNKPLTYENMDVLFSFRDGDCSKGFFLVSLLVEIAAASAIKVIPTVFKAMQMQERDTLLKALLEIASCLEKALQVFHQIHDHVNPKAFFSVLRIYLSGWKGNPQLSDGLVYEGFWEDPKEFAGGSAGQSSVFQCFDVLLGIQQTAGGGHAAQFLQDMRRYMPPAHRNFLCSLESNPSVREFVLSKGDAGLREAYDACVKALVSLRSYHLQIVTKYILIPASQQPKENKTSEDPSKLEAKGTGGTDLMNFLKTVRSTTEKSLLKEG

Row | IC50 | Compound
1 | < 5 nM | CCOc1ncc(Nc2cc(C(CC)CC(=O)O)cc(F)c2N(CC(C)C)CC(C)C)cn1 (single isomer, unassigned) [Example 119, 3-(4-(diisobutylamino)-3-((2-ethoxypyrimidin-5-yl)amino)-5-fluorophenyl) pentanoic acid]
2 | < 50 nM | CCN(c1ccc([C@H](COC)CC(=O)O)cc1Nc1cnc(OC)nc1)C1CCOCC1 (single isomer, unassigned) [Example 387]
3 | > 50 nM | CCN(c1ccc([C@H](COC)CC(=O)O)cc1Nc1cnc(C)nc1)C1CCOCC1 (single isomer, unassigned) [Example 416]
4 | < 5 nM | CCC(CC(=O)O)c1ccc(N(CC)C2CCOCC2)c(NC(=O)Nc2ccc(C)cc2)c1 (single isomer, unassigned) [Example 487 Enantiomer 2, 3-(4-(Ethyl(tetrahydro-2H-pyran-4-yl)amino)-3-(3-(p-tolyl)ureido)phenyl)pentanoic Acid]
5 | > 50 nM | CCC(CC(=O)O)c1ccc(N(CC)C2CCOCC2)c(NC(=O)Nc2cnc(C)nc2)c1 (single isomer, unassigned) [Example 488 Enantiomer 2, 3-(4-(Ethyl(tetrahydro-2H-pyran-4-yl)amino)-3-(3-(2-methylpyrimidin-5-yl)ureido)phenyl)pentanoic Acid]
6 | > 50 nM | CCN(c1ccc(C(CC(=O)O)c2ccccc2)cc1NC(=O)Nc1ccc(C)cc1)C1CCOCC1 (single isomer, unassigned) [Example 594, 3-(4-(Ethyl(tetrahydro-2H-pyran-4-yl)amino)-3-(3-(p-tolyl)ureido)phenyl)-3-phenylpropanoic Acid]
7 | > 50 nM | CCN(c1ccc(C(CC(=O)O)c2ccccc2)cc1NC(=O)Nc1cc(C)on1)C1CCOCC1 (single isomer, unassigned) [Example 597, 3-(4-(ethyl(tetrahydro-2H-pyran-4-yl)amino)-3-(3-(5-methylisoxazol-3-yl)ureido)phenyl)-3-phenylpropanoic acid]
8 | < 5 nM | CCN(c1ccc(C(C)CC(=O)O)cc1Nc1ccc(Cl)cc1)C1CCOCC1 (single isomer, unassigned) [Example 612 E2, 3-(3-((4-Chlorophenyl)amino)-4-(ethyl(tetrahydro-2H-pyran-4-yl)amino)phenyl)butanoic Acid]
9 | < 5 nM | CCN(c1ccc(C(C)CC(=O)O)cc1NC(=O)Nc1ccc(Cl)cc1F)C1CCOCC1 (single isomer, unassigned) [Example 637 E2, 3-(3-(3-(4-Chloro-2-fluorophenyl)ureido)-4-(ethyl (tetrahydro-2H-pyran-4-yl)amino)phenyl)butanoic Acid]
10 | < 5 nM | CCCOc1ncc(Nc2cc(C(CC)CC(=O)O)ccc2N(CC(C)C)C2CCCCC2)cn1 (single isomer, unassigned) [Example 654, 3-(4-(cyclohexyl(isobutyl)amino)-3-((2-propoxypyrimidin-5-yl)amino)phenyl)pentanoic acid]
11 | < 5 nM | CCCN(CC1CC1)c1ccc(C(CC)CC(=O)O)cc1Nc1ccc(Cl)cc1 (single isomer, unassigned) [Example 656 E2, 3-(3-((4-Chlorophenyl)amino)-4-((cyclopropylmethyl) (propyl)amino)phenyl)pentanoic Acid]
12 | < 5 nM | CCC(CC(=O)O)c1ccc(N2C[C@@H]3C[C@H]2CN3Cc2ccccc2)c(Nc2ccc(C)cc2)c1 (single isomer, unassigned) [Example 666 E2]
13 | > 50 nM | CCC(CC(=O)O)c1ccc(N(CC(C)C)C(C)C)c(Nc2ccc3nc(C)sc3c2)c1 (single isomer, unassigned) [Example 730, 3-(4-(isobutyl(isopropyl)amino)-3-((2-methylbenzo[d]thiazol-6-yl)amino)phenyl)pentanoic acid]
14 | > 50 nM | CCC(CC(=O)O)c1ccc(N2CCC[C@H]2C(C)(C)F)c(NC(=O)Nc2ccc(OC)cc2F)c1 (single isomer, unassigned) [Example 793]
15 | > 50 nM | CCC(CC(=O)O)c1ccc(N2CCC[C@H]2C(C)(C)O)c(NC(=O)Nc2cc(C)on2)c1 (single isomer, unassigned) [Example 831]
16 | < 50 nM | Cc1ccc(CC(=O)Nc2cc(C(C)CC(=O)O)ccc2N(CC(C)C)C2CCOCC2)cc1 (single isomer, unassigned) [Example 967, 3-(4-(Isobutyl(tetrahydro-2H-pyran-4-yl)amino)-3-(2-(p-tolyl)acetamido)phenyl)butanoic Acid]
17 | < 5 nM | CCC(CC(=O)O)c1cc(F)c(N(CC(C)C)CC(C)C)c(NC(=O)Cc2ccc(Cl)cc2F)c1 (single isomer, unassigned) [Example 1092 E1]
18 | < 5 nM | CCC(CC(=O)O)c1cc(F)c(N(CC(C)C)CC(C)C)c(NC(=O)Cc2ccc(Cl)cc2F)c1 (single isomer, unassigned) [Example 1092 E2]
19 | < 50 nM | CCC(CC(=O)O)c1ccc(N(CCC(C)C)C2CCCCC2)c(NC(=O)Cc2ccc(C)cc2)c1 (single isomer, unassigned) [Example 1099 E1]
20 | < 50 nM | CCC(CC(=O)O)c1ccc(N(CCC(C)C)C2CCCCC2)c(NC(=O)Cc2ccc(C)cc2)c1 (single isomer, unassigned) [Example 1099 E2]
21 | < 5 nM | CCC(CC(=O)O)c1cc(F)c(N(CC(C)C)C2CCCCC2)c(NC(=O)Cc2ccc(C)cc2)c1 (single isomer, unassigned) [Example 1101 E1]
22 | < 5 nM | CCC(CC(=O)O)c1cc(F)c(N(CC(C)C)C2CCCCC2)c(NC(=O)Cc2ccc(C)cc2)c1 (single isomer, unassigned) [Example 1101 E2]
23 | < 5 nM | CCC(CC(=O)O)c1ccc(N(CC(C)C)CC(C)C)c(NC(=O)Cc2ccc(C)cc2)c1 (single isomer, unassigned) [Example 1103 E2, 3-(4-(Diisobutylamino)-3-(2-(p-tolyl)acetamido)phenyl)pentanoic Acid]
24 | < 5 nM | CCOc1ccc(NC(=O)Nc2cc(C(COC)CC(=O)O)cc(F)c2N(CC(C)C)CC(C)C)cc1 (single isomer, unassigned) [Example 1185, 3-(4-(diisobutylamino)-3-(3-(4-ethoxyphenyl)ureido)-5-fluorophenyl)-4-methoxybutanoic acid]
25 | < 50 nM | COCC(CC(=O)O)c1cc(F)c(N(CC(C)C)CC(C)C)c(NC(=O)Nc2ccc(OC(F)(F)F)cc2)c1 (single isomer, unassigned) [Example 1197, 3-(4-(Diisobutylamino)-3-fluoro-5-(3-(4-(trifluoromethoxy)phenyl)ureido)phenyl)-4-methoxybutanoic Acid]
26 | > 50 nM | COCC(CC(=O)O)c1ccc(N(CC(C)C)C2CCCCC2)c(NC(=O)Cc2cc(C)on2)c1 (single isomer, unassigned) [Example 1238, 3-(4-(Cyclohexyl(isobutyl)amino)-3-(2-(5-methylisoxazol-3-yl)acetamido)phenyl)-4-methoxybutanoic Acid]
27 | < 50 nM | CCN(c1ccc(C(COC(C)C)CC(=O)O)cc1Nc1ccc(F)cc1)C1CCS(=O)(=O)CC1 (stereo not drawn) [Example 316]
28 | < 50 nM | CCN(c1ccc(C(COC(C)C)CC(=O)O)cc1Nc1ccc(F)cc1)C1CCS(=O)(=O)CC1 (stereo not drawn) [Example 336]
29 | > 50 nM | CCC(CC(=O)O)c1ccc(N2CCCC2C(C)(C)F)c(NC(=O)Nc2ccc(OC)cc2F)c1 [Example 787, 3-(3-(3-(2-fluoro-4-methoxyphenyl)ureido)-4-((S)-2-(2-(fluoropropan-2-yl)pyrrolidin-1-yl)phenyl)pentanoic acid]
30 | > 50 nM | (+/−)-Methyl 3-(4-(isobutyl((1 r,4r)-4-methoxycyclohexyl)amino)-3-(3-(p-tolyl)ureido)phenyl)-4-methoxybutanoate [Example 1005]
